Holding throughout (format): cell-based
Assay [1] concerns human lymphoma cell line Raji. Description: Caspase cascade activation in Raji cells. As to conditions: RAJ1 cells, 48 h incubation, read-out: caspase potency EC50 RAJ1. The method, then:
(§1) Human breast cancer cell lines T-47D, human hepatocellular carcinoma cell line SNU398, human colon carcinoma cell line HCT116, human cancer cell line H11299, human Burkitt's lymphoma cell line Namalwa, human lymphoma cell line Raji, and human B cell lymphoblastoid cell line Ramos were grown according to media component mixtures designated by American Type Culture Collection+10% FCS (Invitrogen Corporation), in a 5% CO2-95% humidity incubator at 37° C. T-47D and H1299 cells were maintained at a cell density between 50 and 80% confluency at a cell density of 0.1 to 0.6×10^6 cells/mL. Cells were harvested at 600×g and resuspended at 0.65×10^6 cells/mL into appropriate media+10% FCS. An aliquot of 22.5 μL of cells was added to a well of a 384-well microtiter plate containing 2.5 μL of a 10% DMSO in RPMI-1640 media solution containing 0.16 to 100 μM of 6-(3,4-dimethoxyphenyl)-3-(2-methoxyphenyl)-[1,2,4]triazolo[3,4-b][1,3,4]thiadiazole or other test compound (0.016 to 10 μM final). An aliquot of 22.5 μL of cells was added to a well of a 384-well microtiter plate containing 2.5 μL of a 10% DMSO in RPMI-1640 media solution without test compound as the control sample. The samples were mixed by agitation and then incubated at 37° C. for 48 h in a 5% CO2-95% humidity incubator. After incubation, the samples were removed from the incubator and 25 μL of a solution containing 14 μM of N-(Ac-DEVD)-N′-ethoxycarbonyl-R110 (SEQ ID No.:1) fluorogenic substrate (Cytovia, Inc.; WO99/18856), 20% sucrose (Sigma), 20 mM DTT (Sigma), 200 mM NaCl (Sigma), 40 mM Na PIPES buffer pH 7.2 (Sigma), and 500 μg/mL lysolecithin (Calbiochem) was added. The samples were mixed by agitation and incubated at room temperature. Using a fluorescent plate reader (Model SPECTRAfluor Plus, Tecan), an initial reading (T=0) was made approximately 1-2 min after addition of the substrate solution, employing excitation at 485 nm and emission at 530 nm, to determine the background fluorescence of the control sample. After the 3 h incubation, the samples were read for fluorescence as above (T=3 h).
(§2) The Relative Fluorescence Unit values (RFU) were used to calculate the sample readings as follows: RFU(T=3h)−Control RFU(T=0)=Net RFU(T=3h)
(§3) The activity of caspase cascade activation was determined by the ratio of the net RFU value for 6-(3,4-dimethoxyphenyl)-3-(2-methoxyphenyl)-[1,2,4]triazolo[3,4-b][1,3,4]thiadiazole (Example I) or other test compound to that of control samples. The EC50 (nM) was determined by a sigmoidal dose-response calculation (Prism 3.0, GraphPad Software Inc.).

Assay [2] relates to human B cell lymphoblastoid cell line Ramos. Description: Caspase cascade activation in Ramos cells. The settings on record: 48 h incubation, read-out: caspase potency EC50 RAMOS. Here is the method: as §1, §2, §3
In assay [3] the test system is human Burkitt's lymphoma cell line Namalwa. Kind of assay: Caspase cascade activation in Namalwa cells. As to conditions: Burkitts lymphoma cell, 48 h incubation, read-out: caspase potency EC50 Namalwa. Here is the method:
as §1, §2, §3

Assay [4] deals with Human breast cancer cell lines T-47D. Kind of assay: Caspase cascade activation (Ac-DEVD-R110 fluorogenic substrate) in T-47D cells. As to conditions: T47D cells, 48 h incubation, read-out: caspase potency EC50 T47D. Here is the method: as §1, §2, §3
Assay [5] has as its system human colon carcinoma cell line HCT116. Description: Caspase cascade activation in HCT116 cells. The settings on record: HCT-116, 48 h incubation, read-out: caspase potency EC50 HCT116. The method, then:
as §1, §2, §3

In assay [6] the test system is human hepatocellular carcinoma cell line SNU398. Kind of assay: Caspase cascade activation in SNU398 cells. The settings on record: SNU-398, 48 h incubation, read-out: caspase potency EC50 SNU398. Here is the method: as §1, §2, §3
Assay [7] concerns human B cell lymphoblastoid cell line Ramos. Description: Inhibition of cell proliferation (GI50) in Ramos cells. The settings on record: 48 h incubation. Here is the method: (§4) Human breast cancer cell lines T-47D, MX1 and MDAMB435, human colon carcinoma cell line HCT116, human leukemia cell line K562, human lymphoma cell line Raji, human B cell lymphoblastoid cell line Ramos, and human Burkitt's lymphoma cell line Namalwa were grown and harvested as in Example 14. An aliquot of […] of cells (4.4×10^4 cells/mL) was added to a well of a 96-well microtiter plate containing 5 μL of a 10% DMSO in RPMI-1640 media solution containing 10 nM to 100 μM of 6-(3,4-dimethoxyphenyl)-3-(2-methoxyphenyl)-[1,2,4]triazolo[3,4-b][1,3,4]thiadiazole (1 nM to 10 μM final). An aliquot of 45 μL of cells was added to a well of a 96-well microtiter plate containing 5 μL of a 10% DMSO in RPMI-1640 media solution without compound as the control sample for maximal cell proliferation (LMax). The samples were mixed by agitation and then incubated at 37° C. for 48 h in a 5% CO2-95% humidity incubator. After incubation, the samples were removed from the incubator and 25 μL of CellTiter-Glo™ reagent (Promega) was added. The samples were mixed by agitation and incubated at room temperature for 10-15 min. Plates were then read using a luminescent plate reader (Model SPECTRAfluor Plus, Tecan) to give Ltest values.
(§5) The samples were mixed by agitation and then incubated at 37° C. for 0.5 h in a 5% CO2-95% humidity incubator. After incubation, the samples were removed from the incubator and 25 μL of CellTiter-Glo™ reagent (Promega) was added. The samples were mixed by agitation and incubated at […] 10-15 min at room temperature in a 5% CO2-95% humidity incubator. Fluorescence was read as above, (LStart) defining luminescence for initial cell number used as baseline in GI50 determinations.
(§6) GI50 (dose for 50% inhibition of cell proliferation) is the concentration where [(LTest−LStart)/(LMax−LStart)]=0.5.

Assay [8] deals with human lymphoma cell line Raji. Kind of assay: Inhibition of cell proliferation (GI50) in Raji cells. The settings on record: 48 h incubation. The method, then:
as §4, §5, §6

The test system of assay [9] is human colon carcinoma cell line HCT116. Kind of assay: Inhibition of cell proliferation (GI50) in HCT116 cells. The settings on record: HCT 116 cells, 48 h incubation. The method, then:
as §4, §5, §6

Assay [10] concerns human leukemia cell line K562. Kind of assay: Inhibition of cell proliferation (GI50) in K562 cells. As to conditions: 48 h incubation. The method, then: as §4, §5, §6
Assay [11] relates to human Burkitt's lymphoma cell line Namalwa. Description: Inhibition of cell proliferation (GI50) in Namalwa cells. The settings on record: Burkitts lymphoma cell, 48 h incubation. The method, then:
as §4, §5, §6

The EC50 is the concentration at which the effect is half-maximal. The term GI50 denotes the concentration that inhibits growth by half. For the compound `COc1ccccc1-c1nnc2sc(-c3cc4ccccc4o3)nn12` [Entry A1, 6-(Benzofuran-2-yl)-3-(2-methoxyphenyl)-[1,2,4]triazolo[3,4-b][1,3,4]thiadiazole], the EC50 in [1] came out at 198 nM; in [2], 115 nM; in assay [3] it was 92 nM; in assay [4], 662 nM; in assay [5], 321 nM; in assay [6], 160 nM. The GI50 in assay [7] was determined as 58 nM; in [8] it was 966 nM; in assay [9] it was 2500 nM; in [10] it was 124 nM; in assay [11] it was 126 nM.
Regarding `COc1cc(-c2nnc3sc(-c4ccc(C)cc4)nn23)cc(OC)c1OC` [Entry B1, 6-p-Tolyl-3-(3,4,5-trimethoxyphenyl)-[1,2,4]triazolo[3,4-b][1,3,4]thiadiazole], the EC50 in assay [1] amounted to 678 nM; in [2], 379 nM; in assay [3], 356 nM; in [4], 1540 nM; in [5] it was 647 nM; in [6] it was 494 nM. In addition, the GI50 in assay [7] was found to be 119 nM; in assay [8] it was 549 nM; in assay [9], 1000 nM; in [10] it was 303 nM; in assay [11], 253 nM.
Turning to `COc1cccc(-c2nnc3sc(-c4ccc(N(C)C)cc4)nn23)c1` [Entry D1, 6-(4-Dimethylaminophenyl)-3-(3-methoxyphenyl)-1-[1,2,4]triazolo[3,4-b][1,3,4]thiadiazole], the EC50 was found to be 1410 nM in assay [1]; 1250 nM in assay [2]; 1290 nM in [3]; 1390 nM in [4]; 2270 nM in assay [5]; 1650 nM in assay [6]. In addition, the GI50 is 647 nM in assay [7]; 2600 nM in [8]; 6830 nM in [9]; 1020 nM in [10]; 1130 nM in assay [11].
Take `CN(C)c1ccc(-c2nn3c(-c4ccccc4Cl)nnc3s2)cc1` [Entry E1, 3-(2-Chlorophenyl)-6-(4-dimethylaminophenyl)-[1,2,4]triazolo[3,4-b][1,3,4]thiadiazole]: the EC50 was 573 nM in [1]; 325 nM in assay [2]; 327 nM in [3]; 1090 nM in assay [4]; 1200 nM in assay [5]; 556 nM in assay [6]. The concentration for 50% growth inhibition (GI50) in assay [7] came to 146 nM; in assay [8], 519 nM; in assay [9] it was 2040 nM; in assay [10] it was 332 nM; in assay [11], 167 nM.
On to `CCN(CC)c1ccc(-c2nn3c(-c4ccccc4C)nnc3s2)cc1` [Entry F1, 6-(4-Diethylaminophenyl)-3-o-tolyl-[1,2,4]triazolo[3,4-b][1,3,4]thiadiazole], for which the EC50 in assay [1] is 1020 nM; in assay [2] it was 712 nM; in assay [3], 734 nM; in assay [4], 666 nM; in assay [5], 1720 nM; in assay [6] it was 751 nM. Also, the 50% growth inhibitory concentration (GI50) in [7] was 113 nM; in assay [8], 801 nM; in assay [9] it was 694 nM; in assay [10], 303 nM; in assay [11] it was 372 nM.
As to `CCN(CC)c1ccc(-c2nn3c(-c4ccccc4Cl)nnc3s2)cc1` [Entry G1, 3-(2-Chlorophenyl)-6-(4-diethylaminophenyl)-[1,2,4]triazolo[3,4-b][1,3,4]thiadiazole], the concentration giving a half-maximal response (EC50) in [1] was determined as 627 nM; in assay [2], 575 nM; in [3], 593 nM; in assay [4] it was 584 nM; in assay [5], 1380 nM; in assay [6] it was 455 nM. For the same compound, the GI50 in [7] came out at 41 nM; in assay [8] it was 405 nM; in assay [9] it was 492 nM; in [10], 155 nM; in [11], 149 nM.
As for `Cc1ccccc1-c1nnc2sc(-c3ccc(N(C)C)cc3)nn12` [Entry I1, 6-(4-Dimethylaminophenyl)-3-o-tolyl-[1,2,4]triazolo[3,4-b][1,3,4]thiadiazole], the EC50 in [1] came to 634 nM; in assay [2], 558 nM; in assay [3], 510 nM; in assay [4], 864 nM; in assay [5], 1330 nM; in assay [6] it was 596 nM. Besides, the GI50 in assay [7] was 93 nM; in assay [8] it was 253 nM; in [9], 1190 nM; in [10], 350 nM; in assay [11] it was 142 nM.
Turning to `COc1ccc(-c2nn3c(-c4cc(OC)c(OC)c(OC)c4)nnc3s2)cc1` [Entry S, 6-(4-Methoxyphenyl)-3-(3,4,5-trimethoxyphenyl)-[1,2,4]triazolo[3,4-b][1,3,4]thiadiazole], the EC50 is more than 10000 nM in assay [1]; 2440 nM in [2]; more than 10000 nM in assay [3]; 2420 nM in assay [4]; more than 10000 nM in assay [5]; more than 10000 nM in [6]. The GI50 in assay [7] was 4990 nM; in assay [8], more than 10000 nM; in assay [9], more than 10000 nM; in [10] it was 1460 nM; in assay [11], more than 10000 nM.
Regarding `COc1cc(-c2nnc3sc(-c4ccncc4)nn23)cc(OC)c1OC` [X, 6-(Pyridin-4-yl)-3-(3,4,5-trimethoxyphenyl)-[1,2,4]triazolo[3,4-b][1,3,4]thiadiazole], the concentration giving a half-maximal response (EC50) was more than 10000 nM in assay [1]; more than 10000 nM in [2]; more than 10000 nM in [3]; 3610 nM in assay [4]; 2360 nM in assay [5]; 2010 nM in assay [6].
Consider `COc1cc(-c2nnc3sc(-c4cccs4)nn23)cc(OC)c1OC` [Y, 6-(Thiophen-2-yl)-3-(3,4,5-trimethoxyphenyl)-[1,2,4]triazolo[3,4-b][1,3,4]thiadiazole], for which the EC50 is more than 10000 nM in assay [1]; more than 10000 nM in assay [2]; more than 10000 nM in [3]; 5440 nM in assay [4]; more than 10000 nM in assay [5]; more than 10000 nM in [6].
